Source: US10508085B2, “Compounds and methods for IDO and TDO modulation, and indications therefor” (Plexxikon Inc., priority 2016, dated 2019)
Like-named read-outs stand apart in the source and are kept apart here.

Columns and labels:
[1] = target: T1, Human Tryptophan 2,3-dioxygenase (TDO) (Homo sapiens, UniProt P48775); assay: Human TDO enzymatic assay (kynurenine level); type: biochemical; conditions: 1 nM TDO, 350 μM L-Trp; geometric mean; read-out: TDO GMean: IC50 (μM) (Biochemical Assay)
T1 construct: His tag (N); made in house; host or cells: E. coli
How it was run: (§1)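 Reactions were stopped with TCA, converting N-formylkynurenine to kynurenine for quantitation, with IC50 by nonlinear regression. IDO: 6 nM enzyme, 10 μM L-Trp, 20 min RT. TDO: 1 nM enzyme, 350 μM L-Trp, 70 min RT, both in pH 6.5 buffer.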

[2] = target: T2, human IDO (IDO1-expressing HEK293 cells) (Homo sapiens, UniProt P14902); assay: Cell based kynurenine assay, IDO1-expressing HEK293 cell clones; conditions: IDO1-expressing HEK293 cells, geometric mean, read-out: HEK293 IDO1 Kynurenine GMean IC50 (μM) (Cellular Assay)
T2 construct: expressed in transfected cells
How it was run: (§2)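 Steps: seed IDO1- or TDO-expressing HEK293 cells at 2.5×10^4 per well; add compound dilutions; incubate 24 h; transfer supernatant and determine kynurenine; derive IC50 via nonlinear regression of percent inhibition.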

[3] = target: T3, Human Indoleamine 2,3-dioxygenase (IDO) (Homo sapiens, UniProt P14902); assay: Human IDO enzymatic assay (kynurenine level); type: biochemical; conditions: 6 nM IDO, 10 μM L-Trp; geometric mean; read-out: IDO1 GMean: IC50 (μM) (Biochemical Assay)
T3 construct: His tag (N); made in house; host or cells: E. coli
How it was run: as §1

[4] = target: T4, human TDO (TDO-expressing HEK293 cells) (Homo sapiens, UniProt P48775); assay: Cell based kynurenine assay, TDO-expressing HEK293 cell clones; conditions: TDO-expressing HEK293 cells, geometric mean, read-out: HEK293 TDO Kynurenine GMean IC50 (μM) (Cellular Assay)
T4 construct: expressed in transfected cells
How it was run: as §2

T3 sequence (P14902 whole entry): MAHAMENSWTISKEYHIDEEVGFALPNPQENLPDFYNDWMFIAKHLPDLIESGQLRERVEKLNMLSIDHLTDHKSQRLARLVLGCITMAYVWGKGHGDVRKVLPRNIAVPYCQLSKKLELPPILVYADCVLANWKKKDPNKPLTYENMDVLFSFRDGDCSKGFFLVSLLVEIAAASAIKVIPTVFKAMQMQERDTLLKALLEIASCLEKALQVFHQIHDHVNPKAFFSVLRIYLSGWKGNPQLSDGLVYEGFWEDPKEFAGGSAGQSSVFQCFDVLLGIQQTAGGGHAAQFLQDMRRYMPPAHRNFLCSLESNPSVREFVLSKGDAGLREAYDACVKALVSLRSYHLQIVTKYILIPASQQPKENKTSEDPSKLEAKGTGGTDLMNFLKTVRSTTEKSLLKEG
T2 sequence (P14902 whole entry): as above
T1 sequence (P48775 whole entry): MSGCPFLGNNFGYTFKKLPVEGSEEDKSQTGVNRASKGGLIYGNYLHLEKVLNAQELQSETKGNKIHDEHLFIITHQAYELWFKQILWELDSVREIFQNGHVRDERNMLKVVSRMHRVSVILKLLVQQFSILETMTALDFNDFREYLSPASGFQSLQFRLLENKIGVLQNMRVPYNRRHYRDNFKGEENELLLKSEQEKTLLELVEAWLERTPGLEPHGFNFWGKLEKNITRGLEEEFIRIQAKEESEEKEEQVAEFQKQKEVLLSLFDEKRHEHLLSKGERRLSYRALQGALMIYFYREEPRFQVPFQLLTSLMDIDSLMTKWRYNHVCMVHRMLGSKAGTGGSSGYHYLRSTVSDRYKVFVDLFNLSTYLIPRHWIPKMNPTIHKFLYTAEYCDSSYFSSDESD
T4 sequence (P48775 whole entry): as above

OC1(c2cc(Cl)cc3cn[nH]c23)CC2(CSC2)C1 [Compound P-0040, 6-(5-chloro-1H-indazol-7-yl)-2-thiaspiro[3.3]heptan-6-ol]
IC50 [1]: 0.0001 to 10 µM
IC50 ([2]; 24 hours incubation): 0.0001 to 10 µM
IC50 [3]: 0.0001 to 10 µM
IC50 ([4]; 24 hours incubation): 0.0001 to 10 µM

CCC(CC)(CCC#N)C(O)c1cc(Cl)cc2cn[nH]c12 (centres unmarked) [Compound P-0256, 4-((5-chloro-1H-indazol-7-yl)(hydroxy)methyl)-4-ethylhexanenitrile]
IC50 [1]: 0.0001 to 10 µM
IC50 ([2]; 24 hours incubation): 0.0001 to 10 µM
IC50 [3]: 0.0001 to 10 µM
IC50 ([4]; 24 hours incubation): 0.0001 to 10 µM

CC1(C)CN(c2cc(Cl)c(F)c3cn[nH]c23)CCN1S(C)(=O)=O [Compound P-0097, 5-chloro-7-(3,3-dimethyl-4-(methylsulfonyl)piperazin-1-yl)-4-fluoro-1H-indazole]
IC50 [1]: 0.0001 to 10 µM
IC50 ([2]; 24 hours incubation): 0.0001 to 10 µM
IC50 [3]: 0.0001 to 10 µM
IC50 ([4]; 24 hours incubation): 0.0001 to 10 µM

CC(=O)N1CCC(C2(C(O)c3c(F)c(Cl)cc4cn[nH]c34)CC2)CC1 (stereo not drawn) [Compound P-0159, 1-(4-(1-((5-chloro-6-fluoro-1H-indazol-7-yl)(hydroxy)methyl)cyclopropyl)piperidin-1-yl)ethan-l-one]
IC50 [1]: 0.0001 to 10 µM
IC50 ([2]; 24 hours incubation): 0.0001 to 10 µM
IC50 [3]: 0.0001 to 10 µM
IC50 ([4]; 24 hours incubation): 0.0001 to 10 µM

CC(C)(C1CCN(C(=O)Nc2ccc(Cl)cc2)CC1)[C@@H](O)c1cc(Cl)cc2cn[nH]c12 [Compound P-0433, (R)-4-(1-(5-chloro-1H-indazol-7-yl)-1-hydroxy-2-methylpropan-2-yl)-N-(4-chlorophenyl) piperidine-1-carboxamide]
IC50 [1]: 0.0001 to 10 µM
IC50 ([2]; 24 hours): 0.0001 to 10 µM
IC50 [3]: > 200 µM
IC50 ([4]; 24 hours): 0.0001 to 10 µM

CC(C)(CC1CCOCC1)C(O)c1cc(Cl)cc2cn[nH]c12 (centres unmarked) [Compound P-0254, 1-(5-chloro-1H-indazol-7-yl)-2,2-dimethyl-3-(tetrahydro-2H-pyran-4-yl)propan-1-ol]
IC50 [1]: 0.0001 to 10 µM
IC50 ([2]; 24 hours incubation): 0.0001 to 10 µM
IC50 [3]: 0.0001 to 10 µM
IC50 ([4]; 24 hours incubation): 0.0001 to 10 µM

O=C(Nc1ccc(F)cc1)N1CCC(C2(C(O)c3c(F)c(Cl)cc4cn[nH]c34)CC2)CC1 (centres unmarked) [Compound P-0164, 4-(1-((5-chloro-6-fluoro-1H-indazol-7-yl)(hydroxy)methyl)cyclopropyl)-N-(4-fluorophenyl)piperidine-1-carboxamide]
IC50 [1]: 0.0001 to 10 µM
IC50 ([2]; 24 hours incubation): 0.0001 to 10 µM
IC50 [3]: 0.0001 to 10 µM
IC50 ([4]; 24 hours incubation): 0.0001 to 10 µM

O=C(CC1CC1)N1CCC(C(F)(F)C(O)c2cc(Cl)cc3cn[nH]c23)CC1 (stereo not drawn) [Compound P-0149, 1-(4-(2-(5-chloro-1H-indazol-7-yl)-1,1-difluoro-2-hydroxyethyl)piperidin-l-yl)-2-cyclopropylethan-1-one]
IC50 [1]: 0.0001 to 10 µM
IC50 ([2]; 24 hours incubation): 0.0001 to 10 µM
IC50 [3]: 0.0001 to 10 µM
IC50 ([4]; 24 hours incubation): 0.0001 to 10 µM

CCCC1(C(O)c2cc(Cl)cc3cn[nH]c23)CCC1 (centres unmarked) [Compound P-0121, (5-chloro-1H-indazol-7-yl)(1-propylcyclobutyl)methanol]
IC50 [1]: 0.0001 to 10 µM
IC50 ([2]; 24 hours incubation): 0.0001 to 10 µM
IC50 [3]: 0.0001 to 10 µM
IC50 ([4]; 24 hours incubation): 0.0001 to 10 µM

CC(C)CC(=O)N1CCC(C(C)(C)C(O)c2cc(Cl)cc3cn[nH]c23)CC1 (centres unmarked) [Compound P-0411, 1-(4-(1-(5-chloro-1H-indazol-7-yl)-1-hydroxy-2-methylpropan-2-yl)piperidin-1-yl)-3-methylbutan-1-one]
IC50 [1]: 0.0001 to 10 µM
IC50 ([2]; 24 hours): 0.0001 to 10 µM
IC50 [3]: 0.0001 to 10 µM
IC50 ([4]; 24 hours): 0.0001 to 10 µM

CC(C)(C)OC(=O)N1CCC(C(C)(C)C(O)c2c(F)c(Cl)cc3cn[nH]c23)CC1 (centres unmarked) [Compound P-0370, tert-butyl 4-(1-(5-chloro-6-fluoro-1H-indazol-7-yl)-1-hydroxy-2-methylpropan-2-yl)piperidine-1-carboxylate]
IC50 [1]: 0.0001 to 10 µM
IC50 ([2]; 24 hours incubation): 0.0001 to 10 µM
IC50 [3]: 0.0001 to 10 µM
IC50 ([4]; 24 hours incubation): 0.0001 to 10 µM

OC(c1cc(Cl)cc2cn[nH]c12)C1CC2CCC1C2 (centres unmarked) [Compound P-0240, bicyclo[2.2.1]heptan-2-yl(5-chloro-1H-indazol-7-yl)methanol]
IC50 [1]: 0.0001 to 10 µM
IC50 ([2]; 24 hours incubation): 0.0001 to 10 µM
IC50 [3]: 0.0001 to 10 µM
IC50 ([4]; 24 hours incubation): 0.0001 to 10 µM

CC(C)(C1CCOCC1)C(O)c1cc(Cl)cc2[nH]ncc12 (centres unmarked) [Compound P-0174, 1-(6-chloro-1H-indazol-4-yl)-2-methyl-2-(tetrahydro-2H-pyran-4-yl)propan-1-ol]
IC50 [1]: 0.0001 to 10 µM
IC50 ([2]; 24 hours incubation): 0.0001 to 10 µM
IC50 [3]: 0.0001 to 10 µM
IC50 ([4]; 24 hours incubation): 0.0001 to 10 µM

CC(C)(C1CCN(C(=O)NCCO)CC1)C(O)c1cc(Cl)cc2cn[nH]c12 (centres unmarked) [Compound P-0476, 4-(1-(5-chloro-1H-indazol-7-yl)-1-hydroxy-2-methylpropan-2-yl)-N-(2-hydroxyethyl) piperidine-1-carboxamide]
IC50 [1]: 0.0001 to 10 µM
IC50 ([2]; 24 hours): 0.0001 to 10 µM
IC50 [3]: 0.0001 to 10 µM
IC50 ([4]; 24 hours): 0.0001 to 10 µM

O=C(O)C12CCC(C(O)c3cc(Cl)cc4cn[nH]c34)(CC1)CC2 (centres unmarked) [Compound P-0327, 4-((5-chloro-1H-indazol-7-yl)(hydroxy)methyl)bicyclo [2.2.2]octane-1-carboxylic acid]
IC50 [1]: 0.0001 to 10 µM
IC50 ([2]; 24 hours incubation): 0.0001 to 10 µM
IC50 [3]: 0.0001 to 10 µM
IC50 ([4]; 24 hours incubation): 0.0001 to 10 µM

O=C(NCC(F)(F)F)N1CCC(C(F)(F)C(O)c2cc(Cl)cc3cn[nH]c23)CC1 (centres unmarked) [Compound P-0333, 4-(2-(5-chloro-1H-indazol-7-yl)-1,1-difluoro-2-hydroxyethyl)-N-(2,2,2-trifluoroethyl) piperidine-1-carboxamide]
IC50 [1]: 0.0001 to 10 µM
IC50 ([2]; 24 hours incubation): 0.0001 to 10 µM
IC50 [3]: 0.0001 to 10 µM
IC50 ([4]; 24 hours incubation): 0.0001 to 10 µM

COc1ccc(CC(=O)N2CCC(C(F)(F)C(O)c3cc(Cl)cc4cn[nH]c34)CC2)cn1 (centres unmarked) [Compound P-0521, 1-(4-(2-(5-chloro-1H-indazol-7-yl)-1,1-difluoro-2-hydroxyethyl)piperidin-1-yl)-2-(6-methoxypyridin-3-yl)ethan-1-one]
IC50 [1]: 0.0001 to 10 µM
IC50 ([2]; 24 hours): 0.0001 to 10 µM
IC50 [3]: 0.0001 to 10 µM
IC50 ([4]; 24 hours): 0.0001 to 10 µM

CC1(C(O)c2c(Cl)c(Cl)cc3cn[nH]c23)CCCCC1 (centres unmarked) [Compound P-0025, (5,6-dichloro-1H-indazol-7-yl)(1-methylcyclohexyl)methanol]
IC50 [1]: 0.0001 to 10 µM
IC50 ([2]; 24 hours incubation): 0.0001 to 10 µM
IC50 [3]: 0.0001 to 10 µM
IC50 ([4]; 24 hours incubation): 0.0001 to 10 µM

CC(C)(C1CCN(C(=O)Nc2ccccc2C(F)(F)F)CC1)[C@@H](O)c1cc(Cl)cc2cn[nH]c12 [Compound P-0437, (R)-4-(1-(5-chloro-1H-indazol-7-yl)-1-hydroxy-2-methylpropan-2-yl)-N-(2-(trifluoromethyl)phenyl)piperidine-1-carboxamide]
IC50 [1]: 0.0001 to 10 µM
IC50 ([2]; 24 hours): > 10 µM
IC50 [3]: 0.0001 to 10 µM
IC50 ([4]; 24 hours): > 10 µM

Cc1cc(N2CCN(S(C)(=O)=O)C(C)(C)C2)c2[nH]ncc2c1 [Compound P-0090, 7-(3,3-dimethyl-4-(methylsulfonyl)piperazin-1-yl)-5-methyl-1H-indazole]
IC50 [1]: 0.0001 to 10 µM
IC50 ([2]; 24 hours incubation): 0.0001 to 10 µM
IC50 [3]: 0.0001 to 10 µM
IC50 ([4]; 24 hours incubation): 0.0001 to 10 µM

CC(C)(C1CCN(C(N)=O)CC1)[C@@H](O)c1cc(Cl)cc2cn[nH]c12 [Compound P-0426, (R)-4-(1-(5-chloro-1H-indazol-7-yl)-1-hydroxy-2-methylpropan-2-yl)piperidine-1-carboxamide]
IC50 [1]: 0.0001 to 10 µM
IC50 ([2]; 24 hours): > 10 µM
IC50 [3]: 0.0001 to 10 µM
IC50 ([4]; 24 hours): 0.0001 to 10 µM

O[C@@H](c1c(F)c(Cl)cc2cn[nH]c12)C12CCC(CC1)CC2 [Compound P-0335, (R)-bicyclo[2.2.2]octan-1-yl(5-chloro-6-fluoro-1H-indazol-7-yl)methanol]
IC50 [1]: 0.0001 to 10 µM
IC50 ([2]; 24 hours incubation): 0.0001 to 10 µM
IC50 [3]: 0.0001 to 10 µM
IC50 ([4]; 24 hours incubation): > 10 µM

CCS(=O)(=O)N1CCC(C(C)(C)C(O)c2cc(Cl)cc3cn[nH]c23)CC1 (centres unmarked) [Compound P-0304, 1-(5-chloro-1H-indazol-7-yl)-2-(1-(ethylsulfonyl)piperidin-4-yl)-2-methylpropan-1-ol]
IC50 [1]: 0.0001 to 10 µM
IC50 ([2]; 24 hours incubation): 0.0001 to 10 µM
IC50 [3]: 0.0001 to 10 µM
IC50 ([4]; 24 hours incubation): 0.0001 to 10 µM

CC(C)(C)NC(=O)N1CCC(C(C)(C)C(O)c2cc(Cl)cc3cn[nH]c23)CC1 (centres unmarked) [Compound P-0356, N-(tert-butyl)-4-(1-(5-chloro-1H-indazol-7-yl)-1-hydroxy-2-methylpropan-2-yl)piperidine-1-carboxamide]
IC50 [1]: 0.0001 to 10 µM
IC50 ([2]; 24 hours incubation): 0.0001 to 10 µM
IC50 [3]: 0.0001 to 10 µM
IC50 ([4]; 24 hours incubation): 0.0001 to 10 µM

CN(C)C(C)(C)C(O)c1cc(Cl)cc2cn[nH]c12 (centres unmarked) [Compound P-0230, 1-(5-chloro-1H-indazol-7-yl)-2-(dimethylamino)-2-methylpropan-1-ol]
IC50 [1]: 10 to 100 µM
IC50 ([2]; 24 hours incubation): > 10 µM
IC50 [3]: 10 to 100 µM
IC50 ([4]; 24 hours incubation): > 10 µM

CC(C)(C1CCN(C(=O)NC2CCNCC2)CC1)C(O)c1cc(Cl)cc2cn[nH]c12 (centres unmarked) [Compound P-0453, 4-(1-(5-chloro-1H-indazol-7-yl)-1-hydroxy-2-methylpropan-2-yl)-N-(piperidin-4-yl)piperidine-1-carboxamide]
IC50 [1]: 0.0001 to 10 µM
IC50 ([2]; 24 hours): > 10 µM
IC50 [3]: 0.0001 to 10 µM
IC50 ([4]; 24 hours): > 10 µM
